From PubChem BioAssay (NCI)
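Five concentrations, 48 hours, 96-well plates. The concentration for full growth arrest is given as TGI.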

Key:
Assay in all cases: NCI-60 cell line screen, 48 h
786-0 renal = system: 786-0 renal
A498 renal = system: A498 renal
A549 NSCLC = system: A549 NSCLC
ACHN renal = system: ACHN renal
BT-549 breast = system: BT-549 breast
CAKI-1 renal = system: CAKI-1 renal
CCRF-CEM leukemia = system: CCRF-CEM leukemia
COLO 205 colon = system: COLO 205 colon
DU-145 prostate = system: DU-145 prostate
EKVX NSCLC = system: EKVX NSCLC
HCC-2998 colon = system: HCC-2998 colon
HCT-116 colon = system: HCT-116 colon
HCT-15 colon = system: HCT-15 colon
HL-60(TB) leukemia = system: HL-60(TB) leukemia
HOP-62 NSCLC = system: HOP-62 NSCLC
HOP-92 NSCLC = system: HOP-92 NSCLC
HS 578T breast = system: HS 578T breast
HT29 colon = system: HT29 colon
IGROV1 ovarian = system: IGROV1 ovarian
K-562 leukemia = system: K-562 leukemia
KM12 colon = system: KM12 colon
LOX IMVI melanoma = system: LOX IMVI melanoma
M14 melanoma = system: M14 melanoma
MALME-3M melanoma = system: MALME-3M melanoma
MCF7 breast = system: MCF7 breast
MDA-MB-231 breast = system: MDA-MB-231 breast
MDA-MB-435 = system: MDA-MB-435
MDA-N = system: MDA-N
MOLT-4 leukemia = system: MOLT-4 leukemia
NCI-H226 lung = system: NCI-H226 lung
NCI-H23 lung = system: NCI-H23 lung
NCI-H460 lung = system: NCI-H460 lung
NCI-H522 lung = system: NCI-H522 lung
NCI/ADR-RES ovarian = system: NCI/ADR-RES ovarian
OVCAR-3 ovarian = system: OVCAR-3 ovarian
OVCAR-4 ovarian = system: OVCAR-4 ovarian
OVCAR-5 ovarian = system: OVCAR-5 ovarian
OVCAR-8 ovarian = system: OVCAR-8 ovarian
PC-3 prostate = system: PC-3 prostate
RPMI-8226 leukemia = system: RPMI-8226 leukemia
RXF 393 renal = system: RXF 393 renal
SF-268 CNS = system: SF-268 CNS
SF-295 CNS = system: SF-295 CNS
SF-539 CNS = system: SF-539 CNS
SK-MEL-2 melanoma = system: SK-MEL-2 melanoma
SK-MEL-28 melanoma = system: SK-MEL-28 melanoma
SK-MEL-5 melanoma = system: SK-MEL-5 melanoma
SN12C renal = system: SN12C renal
SNB-19 CNS = system: SNB-19 CNS
SNB-75 CNS = system: SNB-75 CNS
SR leukemia = system: SR leukemia
SW-620 colon = system: SW-620 colon
TK-10 renal = system: TK-10 renal
U251 CNS = system: U251 CNS
UACC-257 melanoma = system: UACC-257 melanoma
UO-31 renal = system: UO-31 renal
SK-OV-3 ovarian = system: SK-OV-3 ovarian
T-47D breast = system: T-47D breast
UACC-62 melanoma = system: UACC-62 melanoma

COc1cc(OC2OC(COC(=O)c3cc(O)c(O)c(O)c3)C(O)C(O)C2O)ccc1O (stereo not drawn)
TGI (786-0 renal): > 100 µM | TGI (A498 renal): > 100 µM | TGI (A549 NSCLC): > 100 µM | TGI (ACHN renal): > 100 µM | TGI (BT-549 breast): > 100 µM | TGI (CAKI-1 renal): > 100 µM | TGI (CCRF-CEM leukemia): > 100 µM | TGI (COLO 205 colon): > 100 µM | TGI (DU-145 prostate): > 100 µM | TGI (EKVX NSCLC): > 100 µM | TGI (HCC-2998 colon): > 100 µM | TGI (HCT-116 colon): > 100 µM | TGI (HCT-15 colon): > 100 µM | TGI (HL-60(TB) leukemia): > 100 µM | TGI (HOP-62 NSCLC): > 100 µM | TGI (HOP-92 NSCLC): > 100 µM | TGI (HS 578T breast): > 100 µM | TGI (HT29 colon): > 100 µM | TGI (IGROV1 ovarian): > 100 µM | TGI (K-562 leukemia): > 100 µM | TGI (KM12 colon): > 100 µM | TGI (LOX IMVI melanoma): > 100 µM | TGI (M14 melanoma): > 100 µM | TGI (MALME-3M melanoma): > 100 µM | TGI (MCF7 breast): > 100 µM | TGI (MDA-MB-231 breast): > 100 µM | TGI (MDA-MB-435): 63.3 µM | TGI (MDA-N): > 100 µM | TGI (MOLT-4 leukemia): > 100 µM | TGI (NCI-H226 lung): > 100 µM | TGI (NCI-H23 lung): > 100 µM | TGI (NCI-H460 lung): > 100 µM | TGI (NCI-H522 lung): > 100 µM | TGI (NCI/ADR-RES ovarian): > 100 µM | TGI (OVCAR-3 ovarian): > 100 µM | TGI (OVCAR-4 ovarian): > 100 µM | TGI (OVCAR-5 ovarian): > 100 µM | TGI (OVCAR-8 ovarian): > 100 µM | TGI (PC-3 prostate): 81.9 µM | TGI (RPMI-8226 leukemia): > 100 µM | TGI (RXF 393 renal): > 100 µM | TGI (SF-268 CNS): > 100 µM | TGI (SF-295 CNS): > 100 µM | TGI (SF-539 CNS): > 100 µM | TGI (SK-MEL-2 melanoma): > 100 µM | TGI (SK-MEL-28 melanoma): > 100 µM | TGI (SK-MEL-5 melanoma): > 100 µM | TGI (SN12C renal): > 100 µM | TGI (SNB-19 CNS): > 100 µM | TGI (SNB-75 CNS): > 100 µM | TGI (SR leukemia): > 100 µM | TGI (SW-620 colon): > 100 µM | TGI (TK-10 renal): > 100 µM | TGI (U251 CNS): > 100 µM | TGI (UACC-257 melanoma): > 100 µM | TGI (UO-31 renal): > 100 µM

COc1ccccc1C1(C)SCc2nc3ccccc3n21 (stereo not drawn)
TGI (BT-549 breast): > 10 µM | TGI (CCRF-CEM leukemia): > 10 µM | TGI (DU-145 prostate): > 10 µM | TGI (HCT-15 colon): > 10 µM | TGI (HL-60(TB) leukemia): > 10 µM | TGI (HOP-92 NSCLC): > 10 µM | TGI (K-562 leukemia): > 10 µM | TGI (KM12 colon): > 10 µM | TGI (LOX IMVI melanoma): > 10 µM | TGI (M14 melanoma): > 10 µM | TGI (MALME-3M melanoma): > 10 µM | TGI (MCF7 breast): > 10 µM | TGI (MDA-MB-435): > 10 µM | TGI (MDA-N): > 10 µM | TGI (MOLT-4 leukemia): > 10 µM | TGI (NCI-H226 lung): > 10 µM | TGI (NCI-H23 lung): > 10 µM | TGI (NCI-H522 lung): > 10 µM | TGI (NCI/ADR-RES ovarian): > 10 µM | TGI (OVCAR-3 ovarian): > 10 µM | TGI (OVCAR-4 ovarian): > 10 µM | TGI (OVCAR-5 ovarian): > 10 µM | TGI (PC-3 prostate): > 10 µM | TGI (SK-MEL-2 melanoma): > 10 µM | TGI (SN12C renal): > 10 µM | TGI (SNB-19 CNS): > 10 µM | TGI (SR leukemia): > 10 µM | TGI (SW-620 colon): > 10 µM | TGI (TK-10 renal): > 10 µM | TGI (U251 CNS): > 10 µM | TGI (UO-31 renal): > 10 µM

CC(=O)OC(C)(C)CCC(=O)[C@](C)(O)[C@H]1[C@H](O)C[C@@]2(C)[C@@H]3CC=C4C(C)=C(OC5OC(CO)C(O)C(O)C5O)C(=O)C[C@@H]4[C@]3(C)C(=O)C[C@]12C (stereo partly drawn)
TGI (786-0 renal): > 100 µM | TGI (A498 renal): > 100 µM | TGI (A549 NSCLC): > 100 µM | TGI (ACHN renal): > 100 µM | TGI (BT-549 breast): > 100 µM | TGI (CAKI-1 renal): > 100 µM | TGI (CCRF-CEM leukemia): > 100 µM | TGI (COLO 205 colon): > 100 µM | TGI (DU-145 prostate): > 100 µM | TGI (EKVX NSCLC): > 100 µM | TGI (HCC-2998 colon): > 100 µM | TGI (HCT-116 colon): > 100 µM | TGI (HCT-15 colon): > 100 µM | TGI (HOP-62 NSCLC): > 100 µM | TGI (HOP-92 NSCLC): > 100 µM | TGI (HT29 colon): > 100 µM | TGI (IGROV1 ovarian): > 100 µM | TGI (K-562 leukemia): > 100 µM | TGI (KM12 colon): > 100 µM | TGI (LOX IMVI melanoma): > 100 µM | TGI (M14 melanoma): > 100 µM | TGI (MALME-3M melanoma): > 100 µM | TGI (MCF7 breast): > 100 µM | TGI (MDA-MB-231 breast): > 100 µM | TGI (MDA-MB-435): > 100 µM | TGI (MDA-N): > 100 µM | TGI (MOLT-4 leukemia): > 100 µM | TGI (NCI-H226 lung): > 100 µM | TGI (NCI-H23 lung): > 100 µM | TGI (NCI-H460 lung): > 100 µM | TGI (NCI-H522 lung): > 100 µM | TGI (NCI/ADR-RES ovarian): > 100 µM | TGI (OVCAR-3 ovarian): > 100 µM | TGI (OVCAR-4 ovarian): > 100 µM | TGI (OVCAR-5 ovarian): > 100 µM | TGI (OVCAR-8 ovarian): > 100 µM | TGI (PC-3 prostate): > 100 µM | TGI (RXF 393 renal): > 100 µM | TGI (SF-268 CNS): > 100 µM | TGI (SF-295 CNS): > 100 µM | TGI (SF-539 CNS): > 100 µM | TGI (SK-MEL-2 melanoma): > 100 µM | TGI (SK-MEL-28 melanoma): > 100 µM | TGI (SK-MEL-5 melanoma): > 100 µM | TGI (SK-OV-3 ovarian): > 100 µM | TGI (SN12C renal): > 100 µM | TGI (SNB-19 CNS): > 100 µM | TGI (SNB-75 CNS): > 100 µM | TGI (SR leukemia): > 100 µM | TGI (SW-620 colon): > 100 µM | TGI (T-47D breast): > 100 µM | TGI (TK-10 renal): > 100 µM | TGI (U251 CNS): > 100 µM | TGI (UACC-257 melanoma): > 100 µM | TGI (UACC-62 melanoma): > 100 µM | TGI (UO-31 renal): > 100 µM
